The target in the assay is T1, Thromboxane A2 receptor (Rattus norvegicus, UniProt P34978).
T1 sequence (P34978 1-341): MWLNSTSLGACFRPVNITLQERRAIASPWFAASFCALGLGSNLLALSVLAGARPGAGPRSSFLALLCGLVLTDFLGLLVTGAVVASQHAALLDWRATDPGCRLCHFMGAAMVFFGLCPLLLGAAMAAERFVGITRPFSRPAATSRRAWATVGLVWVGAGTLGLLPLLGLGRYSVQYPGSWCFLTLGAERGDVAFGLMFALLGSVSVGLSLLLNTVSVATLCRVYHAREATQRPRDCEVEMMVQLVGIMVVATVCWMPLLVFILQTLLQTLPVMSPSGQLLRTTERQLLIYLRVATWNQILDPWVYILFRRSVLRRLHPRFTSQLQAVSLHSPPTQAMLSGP
Description: Thromboxane A2 receptor antagonistic action (inhibitory action of U-46619-induced contractions of rat aortic strips). The note with it: isolated helical strips of rat aorta precontracted with 3×10^-8 M U-46619; read-out: IC50 (the concentrations which inhibited the contraction by 50%). In kind it is cell-based.

Where a name gives a salt, the structure may show the parent alone.

On to `CC(C)c1ccc2c(CCC(C)(C)CNS(=O)(=O)c3ccccc3)cc(C(=O)O)c-2cc1` [Compound 65, 6-isopropyl-3-[3,3-dimethyl-4-(benzenesulfonylamino)butyl]-azulene-1-carboxylic acid], for which the IC50 was 0.05 µM. As for `CC(C)c1ccc2c(C/C=C\CNS(=O)(=O)c3ccccc3)cc(C(=O)O)c-2cc1` [Compound 68, 6-isopropyl-3-[4-(benzenesulfonylamino)-cis-2-butenyl]-azulene-1-carboxylic acid], the figure is 0.052 µM; as for `CC(C)c1ccc2c(C/C=C/CNS(=O)(=O)c3ccccc3)cc(C(=O)O)c-2cc1` [Compound 69, 6-isopropyl-3-[4-(benzenesulfonylamino)-trans-2-butenyl]-azulene-1-carboxylic acid], 0.46 µM. Take `CC(C)c1ccc2c(CCCCNS(=O)(=O)c3ccccc3)cc(S(=O)(=O)O)c-2cc1` [sodium salt]: the IC50 was 0.017 µM.

Values taken from patent publication US5081152A, “Azulene derivatives as thromboxane A2 and prostaglandin endoperoxide receptor antagonist” (Kotobuki Seiyaku Co., Ltd., priority 1989, dated 1992).
